Test results from PubChem BioAssay (NCI).
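The compound was tested at five concentrations on cells cultured in 96-well plates, with a 48-hour exposure period. The concentration for full growth arrest is given as TGI.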

Experiments:
Experiment in all cases: NCI-60 cell line screen, 48 h
OVCAR-4 ovarian = system: OVCAR-4 ovarian
EKVX NSCLC = system: EKVX NSCLC
HOP-62 NSCLC = system: HOP-62 NSCLC
IGROV1 ovarian = system: IGROV1 ovarian
MOLT-4 leukemia = system: MOLT-4 leukemia
DU-145 prostate = system: DU-145 prostate
COLO 205 colon = system: COLO 205 colon
TK-10 renal = system: TK-10 renal
NCI/ADR-RES ovarian = system: NCI/ADR-RES ovarian
BT-549 breast = system: BT-549 breast
U251 CNS = system: U251 CNS
HOP-92 NSCLC = system: HOP-92 NSCLC
UO-31 renal = system: UO-31 renal
SW-620 colon = system: SW-620 colon
UACC-257 melanoma = system: UACC-257 melanoma
SK-MEL-5 melanoma = system: SK-MEL-5 melanoma
SNB-19 CNS = system: SNB-19 CNS
786-0 renal = system: 786-0 renal
SF-539 CNS = system: SF-539 CNS
NCI-H522 lung = system: NCI-H522 lung

SMILES: c1ccc(-c2nnc(SCc3c[nH]c4ccccc34)n2-c2ccccc2)cc1
- TGI (OVCAR-4 ovarian): > 100 µM
- TGI (EKVX NSCLC): > 100 µM
- TGI (HOP-62 NSCLC): > 100 µM
- TGI (IGROV1 ovarian): > 100 µM
- TGI (MOLT-4 leukemia): > 100 µM
- TGI (DU-145 prostate): > 100 µM
- TGI (COLO 205 colon): > 100 µM
- TGI (TK-10 renal): 64.1 µM
- TGI (NCI/ADR-RES ovarian): > 100 µM
- TGI (BT-549 breast): 98.7 µM
- TGI (U251 CNS): > 100 µM
- TGI (HOP-92 NSCLC): 79.3 µM
- TGI (UO-31 renal): > 100 µM
- TGI (SW-620 colon): > 100 µM
- TGI (UACC-257 melanoma): > 100 µM
- TGI (SK-MEL-5 melanoma): 61 µM
- TGI (SNB-19 CNS): > 100 µM
- TGI (786-0 renal): > 100 µM
- TGI (SF-539 CNS): 70.3 µM
- TGI (NCI-H522 lung): > 100 µM

SMILES: N#CCCN(CCC#N)c1ccc(C(N=Nc2ccccc2)=Nc2ccc(Cl)cc2)cc1
- TGI (OVCAR-4 ovarian): > 100 µM
- TGI (EKVX NSCLC): > 100 µM
- TGI (HOP-62 NSCLC): > 100 µM
- TGI (IGROV1 ovarian): > 100 µM
- TGI (MOLT-4 leukemia): > 100 µM
- TGI (DU-145 prostate): > 100 µM
- TGI (COLO 205 colon): > 100 µM
- TGI (TK-10 renal): > 100 µM
- TGI (NCI/ADR-RES ovarian): > 100 µM
- TGI (BT-549 breast): > 100 µM
- TGI (U251 CNS): > 100 µM
- TGI (HOP-92 NSCLC): > 100 µM
- TGI (UO-31 renal): > 100 µM
- TGI (SW-620 colon): > 100 µM
- TGI (UACC-257 melanoma): > 100 µM
- TGI (SK-MEL-5 melanoma): > 100 µM
- TGI (SNB-19 CNS): > 100 µM
- TGI (786-0 renal): > 100 µM
- TGI (SF-539 CNS): > 100 µM
- TGI (NCI-H522 lung): > 100 µM

SMILES: COC(=O)C(C(=O)C(=O)Nc1ccccc1C#N)c1nc2ccc([N+](=O)[O-])cc2[nH]c1=O (stereo not given)
- TGI (OVCAR-4 ovarian): > 100 µM
- TGI (EKVX NSCLC): > 100 µM
- TGI (HOP-62 NSCLC): > 100 µM
- TGI (IGROV1 ovarian): > 100 µM
- TGI (MOLT-4 leukemia): > 100 µM
- TGI (DU-145 prostate): > 100 µM
- TGI (COLO 205 colon): > 100 µM
- TGI (TK-10 renal): > 100 µM
- TGI (NCI/ADR-RES ovarian): > 100 µM
- TGI (BT-549 breast): > 100 µM
- TGI (U251 CNS): > 100 µM
- TGI (HOP-92 NSCLC): > 100 µM
- TGI (UO-31 renal): > 100 µM
- TGI (SW-620 colon): > 100 µM
- TGI (UACC-257 melanoma): > 100 µM
- TGI (SK-MEL-5 melanoma): > 100 µM
- TGI (SNB-19 CNS): > 100 µM
- TGI (786-0 renal): > 100 µM
- TGI (SF-539 CNS): > 100 µM
- TGI (NCI-H522 lung): > 100 µM

SMILES: COC(=O)/C=C(/C(=O)OC)c1cc2ccc3c([nH]c4ccccc43)c(C)c-2c1
- TGI (OVCAR-4 ovarian): 69.3 µM
- TGI (EKVX NSCLC): 24.2 µM
- TGI (HOP-62 NSCLC): 37.5 µM
- TGI (IGROV1 ovarian): 13.1 µM
- TGI (MOLT-4 leukemia): 11.5 µM
- TGI (DU-145 prostate): 42.2 µM
- TGI (COLO 205 colon): 3.3 µM
- TGI (TK-10 renal): > 100 µM
- TGI (NCI/ADR-RES ovarian): > 100 µM
- TGI (BT-549 breast): 23.1 µM
- TGI (U251 CNS): 18.1 µM
- TGI (HOP-92 NSCLC): 5.43 µM
- TGI (UO-31 renal): 17.1 µM
- TGI (SW-620 colon): 27.1 µM
- TGI (UACC-257 melanoma): 28.2 µM
- TGI (SK-MEL-5 melanoma): 9.18 µM
- TGI (SNB-19 CNS): 23.2 µM
- TGI (786-0 renal): 20.1 µM
- TGI (SF-539 CNS): 31.5 µM
- TGI (NCI-H522 lung): 5.83 µM
